Measurements as given in patent US11214567B2, “Small molecule inhibitors of MYC and uses thereof” (The Regents of the University of Michigan, priority 2017, dated 2022).

Tests used:
SKOV3 = assay: MTT assay (cytotoxicity), SKOV3; format: cell-based; conditions: Homo sapiens, SK-OV-3, 72 h, drug concentration causing a 50% decrease in cell population
Experimental: (§1) The evaluation of cytotoxicity was based on the reduction of MTT dye by viable cells to give purple formazan products, which can be measured spectrophotometrically at 540 nm. One hundred eighty microliters of cancer cells were seeded into 96-well plates at 3,500-4,000 cells/well and incubated at 37° C. overnight before the indicated treatments. After 72 h, 20 μl of MTT solution (3 mg/ml) was added and incubated again for 3 h. After removal of media and solubilization of formazan crystals in 150 μL of DMSO, the absorbance was measured at 570 nm. Percentage of cell growth inhibition was expressed as 1-[(A−B)/(C−B)]×100% (A, B and C were the absorbance values from experimental, blank and control cells, respectively).
(§2) KJA derivatives were tested by the MTT assay against five human cancer cell lines including ovarian cancer cell lines (OVCAR-8, NCI/ADR-RES and SKOV3) and pancreatic cancer cell lines (MIA PaCa-2 and Pac-1). […] It is important to note that the NCI/ADR-RES cell line shares a large number of karyotypic abnormalities with OVCAR-8 but expresses high levels of MDR1 (multidrug resistance protein 1)/P-glycoprotein (see, e.g., Xu, S.; et al., Proceedings of the National Academy of Sciences 2012, 109, 16348-16353), resulting in resistance to multiple anticancer drugs in clinical use, including paclitaxel and doxorubicin.

OVCAR8 = assay: MTT assay (cytotoxicity), OVCAR8; format: cell-based; conditions: Homo sapiens, OVCAR-8, 72 h, drug concentration causing a 50% decrease in cell population
Experimental: as §1, §2

NCI/ADR-RES = assay: MTT assay (cytotoxicity), NCI/ADR-RES; format: cell-based, human; conditions: Homo sapiens, NCI/ADR-RES; MTT, 72 h; drug concentration causing a 50% decrease in cell population
Experimental: as §1, §2

Panc1 = assay: MTT assay (cytotoxicity), Panc1; format: cell-based; conditions: Homo sapiens, PANC-1, 72 h, drug concentration causing a 50% decrease in cell population
Experimental: as §1, §2

MIA PaCa-2 = assay: MTT assay (cytotoxicity), MIA PaCa-2; format: cell-based; conditions: Homo sapiens, 72 h, drug concentration causing a 50% decrease in cell population
Experimental: as §1, §2

C-MYC [1] = assay: Western blotting of C-MYC protein levels in cancer cells; format: cell-based, human; conditions: NCI/ADR-RES cells; 0.5 μM; positive control
Experimental: Cells (5×10^5) were cultured in 6-well plate and treated with KJA03 at designated concentrations. After treatment, cells were lysed with cell lysis buffer on ice at 4° C., sonicated for 3 min, centrifuged (12,000 rpm, 10 min, 4° C.) and then, the supernatant was collected. Protein concentrations of supernatants were evaluated with BCA assay. Proteins were resolved in 10% SDS/PAGE and electrotransferred to Immun-Blot PVDF membrane (Bio-Rad). After blocking with 5% milk in TBST (Tris-buffered saline with 0.1% Tween 20), membranes were probed with primary antibodies (anti-PARP, anti-caspase 3 and anti-GAPDH) 1:1000 dilutions overnight at 4° C. Membranes were then washed with TBST (5 min×3), incubated with Dylight 800-conjugated secondary antibodies 1:7500 dilutions in 5% milk for 1 h at room temperature, and washed with TBST (5 min×3). Fluorescent signal was then scanned by Odyssey Imaging Systems (LI-COR Biosciences).
The effect of KJA03 on the MYC protein levels, including C-MYC and N-MYC, NCI/ADR-RES cells were treated with KJA03 at concentration of 0.1 (half IC50) and 0.2 (IC50) μM for 24 and 48 h. […] It has previously been reported that JQ1 treatment leads to down-regulation of c-MYC protein levels in osteosarcoma, leukemia and lymphoma cells (see, e.g., Mertz, J. A.; et al., Proceedings of the National Academy of Sciences 2011, 108, 16669-16674).
Experiments were conducted to further repeat the experiment and JQ1 was chosen as a positive control. As expected, expression of C-MYC was reduced by KJA03 at 24 h of treatment, correlated with previous experiment (FIG. 3).
Experiments were conducted that further performed a time-course experiment to evaluate C-MYC suppression including 2, 6, 8 24 and 48 h at concentration of 0.2 μM. To define the specificity of MYC suppression in further detail, we treated cells with a range of compound concentrations at 24 h. […] To determine whether KJA03 can suppress C-MYC in different cell lines, we next investigated the level of C-MYC in response to treatment with KJA03 at 0.2 μM using other three different OVCAR8, MIA PaCa-2 and Panc-1 cell lines.

c-MYC [2] = conditions: osteosarcoma, leukemia and lymphoma cells; cited from earlier work

## COc1cc(-c2nc(-c3ccccc3Cl)no2)c(-n2c(-c3ccccc3Cl)noc2=O)cc1OC [KJA10, 3-(2-Chlorophenyl)-4-(2-(3-(2-chlorophenyl)-1,2,4-oxadiazol-5-yl)-4,5-dimethoxyphenyl)-1,2,4-oxadiazol-5(4H)-one]
SKOV3
  IC50: 3.23 ± 0.37 µM
OVCAR8
  IC50: 0.71 ± 0.08 µM
NCI/ADR-RES
  IC50: 2 ± 0.76 µM
Panc1
  IC50: 1.08 µM
MIA PaCa-2
  IC50: 0.71 µM

## O=c1onc(-c2ccc(Cl)cc2)n1-c1ccccc1-c1nc(-c2ccc(Cl)cc2)no1 [KJA02, 3-(4-Chlorophenyl)-4-(2-(3-(4-chlorophenyl)-1,2,4-oxadiazol-5-yl)phenyl)-1,2,4-oxadiazol-5(4H)-one]
SKOV3
  IC50: 11.2 µM
OVCAR8
  IC50: 1.96 ± 0.42 µM
NCI/ADR-RES
  IC50: 4.16 ± 2.61 µM
Panc1
  IC50: 1.51 µM
MIA PaCa-2
  IC50: 1.12 µM

## COc1cc(-c2nc(-c3ccccc3)no2)c(-n2c(-c3ccccc3)noc2=O)cc1OC [KJA06, 4-(4,5-Dimethoxy-2-(3-phenyl-1,2,4-oxadiazol-5-yl)phenyl)-3-phenyl-1,2,4-oxadiazol-5(4H)-one]
SKOV3
  IC50: > 30 µM
OVCAR8
  IC50: > 30 µM
NCI/ADR-RES
  IC50: > 30 µM
Panc1
  IC50: > 30 µM
MIA PaCa-2
  IC50: > 30 µM

## O=c1onc(-c2ccccc2F)n1-c1ccccc1-c1nc(-c2ccccc2F)no1 [KJA17, 3-(2-Fluorophenyl)-4-(2-(3-(2-fluorophenyl)-1,2,4-oxadiazol-5-yl)phenyl)-1,2,4-oxadiazol-5(4H)-one]
SKOV3
  IC50: 25.6 µM
OVCAR8
  IC50: 9.12 ± 0.88 µM
NCI/ADR-RES
  IC50: 9.42 ± 1.61 µM
Panc1
  IC50: 3.17 µM
MIA PaCa-2
  IC50: 1.43 µM

## COc1cc(-c2nc(-c3ccc(Cl)cc3)no2)c(-n2c(-c3ccc(Cl)cc3)noc2=O)cc1OC [KJA09, 3-(4-Chlorophenyl)-4-(2-(3-(4-chlorophenyl)-1,2,4-oxadiazol-5-yl)-4,5-dimethoxyphenyl)-1,2,4-oxadiazol-5(4H)-one]
SKOV3
  IC50: > 30 µM
OVCAR8
  IC50: > 30 µM
NCI/ADR-RES
  IC50: > 30 µM
Panc1
  IC50: > 30 µM
MIA PaCa-2
  IC50: > 30 µM

## O=c1onc(-c2ccc(F)cc2)n1-c1ccccc1-c1nc(-c2ccc(F)cc2)no1 [KJA04, 3-(4-Fluorophenyl)-4-(2-(3-(4-fluorophenyl)-1,2,4-oxadiazol-5-yl)phenyl)-1,2,4-oxadiazol-5(4H)-one]
SKOV3
  IC50: 20.9 µM
OVCAR8
  IC50: 7.21 ± 1.55 µM
NCI/ADR-RES
  IC50: 7.63 ± 3.01 µM
Panc1
  IC50: 3.22 µM
MIA PaCa-2
  IC50: 5.17 µM

## CC(=O)O[C@H]1C(=O)[C@@]2(C)[C@H]([C@H](OC(=O)c3ccccc3)[C@]3(O)C[C@H](OC(=O)[C@H](O)[C@@H](NC(=O)c4ccccc4)c4ccccc4)C(C)=C1C3(C)C)[C@]1(OC(C)=O)CO[C@@H]1C[C@@H]2O [Paclitaxel, reference compound]
OVCAR8
  IC50: < 0.04 µM
NCI/ADR-RES
  IC50: > 30 µM
Panc1
  IC50: < 0.04 µM
MIA PaCa-2
  IC50: < 0.04 µM

## Cc1sc2c(c1C)C(c1ccc(Cl)cc1)=N[C@@H](CC(=O)OC(C)(C)C)c1nnc(C)n1-2 [JQ1, reference compound]
C-MYC [1]
  C-MYC expression: did not inhibit C-MYC expression
c-MYC [2]
  c-MYC protein levels: down-regulation

## O=c1onc(-c2ccccc2)n1-c1ccccc1-c1nc(-c2ccccc2)no1 [KJA01, 3-Phenyl-4-(2-(3-phenyl-1,2,4-oxadiazol-5-yl)phenyl)-1,2,4-oxadiazol-5(4H)-one]
SKOV3
  IC50: 5.82 µM
OVCAR8
  IC50: 4.65 ± 2.05 µM
NCI/ADR-RES
  IC50: 4.31 ± 0.55 µM
Panc1
  IC50: 2.16 µM
MIA PaCa-2
  IC50: 2.49 µM
